In the assay the test system is Pythium ultimum. As to the kind of experiment: Pythium ultimum / liquid culture (seedling damping off). In kind it is cell-based. The following applies: Globisporangium ultimum, growth inhibition photometrically 2-3 days after application, compared to untreated control. The method, then:
15. Pythium ultimum/Liquid Culture (Seedling Damping Off) Mycelia fragments and oospores of a newly grown liquid culture of the fungus are directly mixed into nutrient broth (PDB potato dextrose broth). After placing a (DMSO) solution of test compound into a microtiter plate (96-well format), the nutrient broth containing the fungal mycelia/spore mixture is added. The test plates are incubated at 24° C. and the inhibition of growth is determined photometrically 2-3 days after application.

The values below come from patent publication US20180244699A1, “1-HYDROXY-3H-2,1-BENZOXABOROLE DERIVATIVES AND THEIR USE AS MICROBIOCIDES” (Syngenta Participations AG, priority 2015, published 2018).

For `COc1c(C(=O)NCc2ccccn2)ccc2c1B(O)OC2` [Compound 7, 1-hydroxy-7-methoxy-N-(2-pyridylmethyl)-3H-2,1-benzoxaborole-6-carboxamide], the inhibition of growth (usually the share of the control response that was lost under treatment) at 20 ppm was ≥ 80%.
With `COc1c(C(=O)N(C)C)ccc2c1B(O)OC2` [Compound 11, 1-hydroxy-7-methoxy-N,N-dimethyl-3H-2,1-benzoxaborole-6-carboxamide], the inhibition of growth at 20 ppm was ≥ 80%.
With `CN(C)C(=O)c1ccc2c(c1Cl)B(O)OC2` [Compound 13, 7-chloro-1-hydroxy-N,N-dimethyl-3H-2,1-benzoxaborole-6-carboxamide], the inhibition of growth at 20 ppm is ≥ 80%.
As for `CCOC(=O)N1CCC(NC(=O)c2ccc3c(c2OC)B(O)OC3)CC1` [Compound 18, ethyl 4-[(1-hydroxy-7-methoxy-3H-2,1-benzoxaborole-6-carbonyl)amino]piperidine-1-carboxylate], the inhibition of growth at 20 ppm is ≥ 80%.
For `COc1c(C(=O)NC(=O)N(C)C)ccc2c1B(O)OC2` [Compound 21, N-(dimethylcarbamoyl)-1-hydroxy-7-methoxy-3H-2,1-benzoxaborole-6-carboxamide], the inhibition of growth at 20 ppm is ≥ 80%.
As to `COc1c(C(=O)Nc2cc(C)cc(C)n2)ccc2c1B(O)OC2` [Compound 22, N-(4,6-dimethyl-2-pyridyl)-1-hydroxy-7-methoxy-3H-2,1-benzoxaborole-6-carboxamide], the inhibition of growth at 20 ppm is ≥ 80%.
For `COC(=O)C1CCN(C(=O)c2ccc3c(c2OC)B(O)OC3)CC1` [Compound 24, methyl 1-(1-hydroxy-7-methoxy-3H-2,1-benzoxaborole-6-carbonyl)piperidine-4-carboxylate], the inhibition of growth at 20 ppm is ≥ 80%.
For `COCCN(C)C(=O)c1ccc2c(c1OC)B(O)OC2` [Compound 27, 1-hydroxy-7-methoxy-N-(2-methoxyethyl)-N-methyl-3H-2,1-benzoxaborole-6-carboxamide], the inhibition of growth at 20 ppm is ≥ 80%.
As to `COc1c(C(=O)N(C)c2nc(C)c(S(N)(=O)=O)s2)ccc2c1B(O)OC2` [Compound 28, 1-hydroxy-7-methoxy-N-methyl-N-(4-methyl-5-sulfamoyl-thiazol-2-yl)-3H-2,1-benzoxaborole-6-carboxamide], the inhibition of growth at 20 ppm was ≥ 80%.
As for `COc1c(C(=O)N(C)c2ccccn2)ccc2c1B(O)OC2` [Compound 30, 1-hydroxy-7-methoxy-N-methyl-N-(2-pyridyl)-3H-2,1-benzoxaborole-6-carboxamide], the inhibition of growth at 20 ppm is ≥ 80%.
Regarding `COc1c(C(=O)NCC(C)C)ccc2c1B(O)OC2` [Compound 36, 1-hydroxy-N-isobutyl-7-methoxy-3H-2,1-benzoxaborole-6-carboxamide], the inhibition of growth at 20 ppm is ≥ 80%.
`CCOC(=O)C1(NC(=O)c2ccc3c(c2OC)B(O)OC3)CC1` [Compound 37, ethyl 1-[(1-hydroxy-7-methoxy-3H-2,1-benzoxaborole-6-carbonyl)amino]cyclopropanecarboxylate]: the inhibition of growth at 20 ppm is ≥ 80%.
The value for `COc1c(C(=O)Nc2c(C(C)C)ccnc2C(C)C)ccc2c1B(O)OC2` [Compound 38, N-(2,4-diisopropyl-3-pyridyl)-1-hydroxy-7-methoxy-3H-2,1-benzoxaborole-6-carboxamide] was ≥ 80%; that for `COc1c(C(=O)N(C)c2cc(Cl)cnc2Cl)ccc2c1B(O)OC2` [Compound 39, N-(2,5-dichloro-3-pyridyl)-1-hydroxy-7-methoxy-N-methyl-3H-2,1-benzoxaborole-6-carboxamide] was ≥ 80%; that for `CCSc1nc(NC(=O)c2ccc3c(c2OC)B(O)OC3)nn1C` [Compound 40, N-(5-ethylsulfanyl-1-methyl-1,2,4-triazol-3-yl)-1-hydroxy-7-methoxy-3H-2,1-benzoxaborole-6-carboxamide] was ≥ 80%.
As to `COc1c(C(=O)Nc2ccnc(C)c2)ccc2c1B(O)OC2` [Compound 42, 1-hydroxy-7-methoxy-N-(2-methyl-4-pyridyl)-3H-2,1-benzoxaborole-6-carboxamide], the inhibition of growth at 20 ppm was ≥ 80%.
